Values of other authors as cited in US12219980B2, “Nutritionally enhanced fraction from rice bran and method of lowering insulin resistance using same” (QJV, LLC, priority 2010, dated 2025).

Experiments:
[1] = animal studies, compared with controls
[2] = in vivo
HMG-CoA = biological target: T1, HMG-CoA (Homo sapiens, UniProt P04035); conditions: micromolar amounts
T1 sequence (P04035 1-888): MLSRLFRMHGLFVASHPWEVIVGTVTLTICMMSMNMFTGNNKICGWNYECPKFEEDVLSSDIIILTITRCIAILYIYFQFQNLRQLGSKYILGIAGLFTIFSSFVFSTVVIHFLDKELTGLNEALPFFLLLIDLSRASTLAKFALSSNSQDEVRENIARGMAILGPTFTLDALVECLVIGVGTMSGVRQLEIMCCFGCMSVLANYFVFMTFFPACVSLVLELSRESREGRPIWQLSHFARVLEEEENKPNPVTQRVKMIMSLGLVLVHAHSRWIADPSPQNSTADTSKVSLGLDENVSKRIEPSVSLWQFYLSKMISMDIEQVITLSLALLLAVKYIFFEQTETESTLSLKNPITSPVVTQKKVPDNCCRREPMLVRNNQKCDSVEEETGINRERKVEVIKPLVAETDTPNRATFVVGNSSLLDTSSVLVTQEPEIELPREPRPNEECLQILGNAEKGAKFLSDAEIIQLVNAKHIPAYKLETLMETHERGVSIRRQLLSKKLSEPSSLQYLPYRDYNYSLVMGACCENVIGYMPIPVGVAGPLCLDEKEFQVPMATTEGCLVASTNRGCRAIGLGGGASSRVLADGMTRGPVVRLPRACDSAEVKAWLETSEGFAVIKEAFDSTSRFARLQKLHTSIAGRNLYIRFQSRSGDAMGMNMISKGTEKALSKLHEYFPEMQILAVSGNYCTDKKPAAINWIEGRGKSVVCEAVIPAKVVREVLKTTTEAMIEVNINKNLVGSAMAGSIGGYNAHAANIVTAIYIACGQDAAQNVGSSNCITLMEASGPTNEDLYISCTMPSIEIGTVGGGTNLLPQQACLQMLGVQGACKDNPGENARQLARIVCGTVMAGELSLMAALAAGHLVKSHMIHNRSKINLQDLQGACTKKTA

[3] = in vivo; remark: listed apart in the source

## COc1cc(/C=C/C(=O)O)ccc1O [ferulic acid]
[1]
  activities of hepatic glucose-6-phosphate dehydrogenase, catalase and peroxidase: diminishing
  levels of glycogen in the liver and skeletal muscle: significantly decreased

## gamma-oryzanol
[2]
  bile acid secretion and fecal excretion of cholesterol: affect bile acid secretion and fecal excretion of cholesterol

## tocotrienol
HMG-CoA
  activity of HMG-CoA: suppress the activity of HMG-CoA
[3]
  total cholesterol and LDL cholesterol in blood plasma: lower
